Columns and labels:
Test in all cases: radiometric filter-binding kinase assay, Kinase HotSpot
Conditions in all cases: compound 0.5 µM; ATP 10 µM
ACVR1B (human) = ACVR1B (human) (UniProt P36896)
MAP4K4 (human) = MAP4K4 (human) (UniProt O95819)
CHEK1 (human) = CHEK1 (human) (UniProt O14757)
STK16 (human) = STK16 (human) (UniProt O75716)
FGR (human) = FGR (human) (UniProt P09769)
MAP3K11 (human) = MAP3K11 (human) (UniProt Q16584)
NTRK2 (human) = NTRK2 (human) (UniProt Q16620)
IRAK4 (human) = IRAK4 (human) (UniProt Q9NWZ3)
RAF1 (human) = RAF1 (human) (UniProt P04049)
MAPK14 (human) = MAPK14 (human) (UniProt Q16539)
ADRBK2 (human) = ADRBK2 (human) (UniProt P35626)
PRKD1 (human) = PRKD1 (human) (UniProt Q15139)
NLK (human) = NLK (human) (UniProt Q9UBE8)
BRSK2 (human) = BRSK2 (human) (UniProt Q8IWQ3)
ULK2 (human) = ULK2 (human) (UniProt Q8IYT8)
JAK3 JH1 JH2 (human) = JAK3 JH1 JH2 (human) (UniProt P52333)
CAMK2D (human) = CAMK2D (human) (UniProt Q13557)
CLK4 (human) = CLK4 (human) (UniProt Q9HAZ1)
MKNK2 (human) = MKNK2 (human) (UniProt Q9HBH9)
WNK2 (human) = WNK2 (human) (UniProt Q9Y3S1)
CDK4 CCND1 (human) = CDK4 CCND1 (human) (UniProt P24385+P11802)
DAPK2 (human) = DAPK2 (human) (UniProt Q9UIK4)
MAP3K9 (human) = MAP3K9 (human) (UniProt P80192)
SRPK2 (human) = SRPK2 (human) (UniProt P78362)
GRK6 (human) = GRK6 (human) (UniProt P43250)
PIM1 (human) = PIM1 (human) (UniProt P11309)
PRKACA (human) = PRKACA (human) (UniProt P17612)
HIPK3 (human) = HIPK3 (human) (UniProt Q9H422)
GSK3B (human) = GSK3B (human) (UniProt P49841)
SGK2 (human) = SGK2 (human) (UniProt Q9HBY8)
PASK (human) = PASK (human) (UniProt Q96RG2)
NUAK1 (human) = NUAK1 (human) (UniProt O60285)
PIM2 (human) = PIM2 (human) (UniProt Q9P1W9)
JAK2 JH1 JH2 (human) = JAK2 JH1 JH2 (human) (UniProt O60674)
CSNK1D (human) = CSNK1D (human) (UniProt P48730)
MARK4 (human) = MARK4 (human) (UniProt Q96L34)
NEK7 (human) = NEK7 (human) (UniProt Q8TDX7)
TSSK2 (human) = TSSK2 (human) (UniProt Q96PF2)
CDK5 CDK5R1 p35 (human) = CDK5 CDK5R1 p35 (human) (UniProt Q00535+Q15078)
NTRK1 (human) = NTRK1 (human) (UniProt P04629)
FRK (human) = FRK (human) (UniProt P42685)
TYRO3 (human) = TYRO3 (human) (UniProt Q06418)

Sequence of CSNK1D (human) (P48730 whole entry, looked up): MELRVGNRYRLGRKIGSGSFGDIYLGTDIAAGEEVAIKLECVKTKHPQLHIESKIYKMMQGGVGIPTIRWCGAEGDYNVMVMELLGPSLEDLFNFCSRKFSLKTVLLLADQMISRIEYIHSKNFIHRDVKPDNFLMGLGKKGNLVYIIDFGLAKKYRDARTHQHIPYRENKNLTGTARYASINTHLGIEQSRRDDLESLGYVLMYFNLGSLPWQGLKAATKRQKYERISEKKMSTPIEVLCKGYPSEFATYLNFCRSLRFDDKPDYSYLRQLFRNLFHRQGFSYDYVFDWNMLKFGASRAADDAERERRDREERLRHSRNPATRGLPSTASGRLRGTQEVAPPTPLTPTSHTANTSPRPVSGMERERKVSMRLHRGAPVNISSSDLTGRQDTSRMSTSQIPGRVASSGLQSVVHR
Sequence of NUAK1 (human) (O60285 whole entry, looked up): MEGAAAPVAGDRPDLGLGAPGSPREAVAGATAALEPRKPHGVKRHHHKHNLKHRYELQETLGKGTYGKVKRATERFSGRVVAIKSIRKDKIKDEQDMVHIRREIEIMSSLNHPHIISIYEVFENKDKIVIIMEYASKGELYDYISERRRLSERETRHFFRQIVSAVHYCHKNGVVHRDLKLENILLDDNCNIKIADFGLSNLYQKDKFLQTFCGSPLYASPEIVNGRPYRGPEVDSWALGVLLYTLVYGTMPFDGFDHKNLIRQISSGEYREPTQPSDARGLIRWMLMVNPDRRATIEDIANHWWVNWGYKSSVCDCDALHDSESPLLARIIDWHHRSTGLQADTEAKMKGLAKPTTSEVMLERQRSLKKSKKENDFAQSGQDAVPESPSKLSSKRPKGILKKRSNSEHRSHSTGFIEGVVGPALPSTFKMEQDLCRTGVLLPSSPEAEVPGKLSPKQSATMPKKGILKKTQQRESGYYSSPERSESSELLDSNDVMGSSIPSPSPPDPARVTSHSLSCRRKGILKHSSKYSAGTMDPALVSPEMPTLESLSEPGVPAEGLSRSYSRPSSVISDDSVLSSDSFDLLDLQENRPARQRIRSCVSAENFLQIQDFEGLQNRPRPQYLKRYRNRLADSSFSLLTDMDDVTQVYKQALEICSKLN
Sequence of PRKD1 (human) (Q15139 whole entry, looked up): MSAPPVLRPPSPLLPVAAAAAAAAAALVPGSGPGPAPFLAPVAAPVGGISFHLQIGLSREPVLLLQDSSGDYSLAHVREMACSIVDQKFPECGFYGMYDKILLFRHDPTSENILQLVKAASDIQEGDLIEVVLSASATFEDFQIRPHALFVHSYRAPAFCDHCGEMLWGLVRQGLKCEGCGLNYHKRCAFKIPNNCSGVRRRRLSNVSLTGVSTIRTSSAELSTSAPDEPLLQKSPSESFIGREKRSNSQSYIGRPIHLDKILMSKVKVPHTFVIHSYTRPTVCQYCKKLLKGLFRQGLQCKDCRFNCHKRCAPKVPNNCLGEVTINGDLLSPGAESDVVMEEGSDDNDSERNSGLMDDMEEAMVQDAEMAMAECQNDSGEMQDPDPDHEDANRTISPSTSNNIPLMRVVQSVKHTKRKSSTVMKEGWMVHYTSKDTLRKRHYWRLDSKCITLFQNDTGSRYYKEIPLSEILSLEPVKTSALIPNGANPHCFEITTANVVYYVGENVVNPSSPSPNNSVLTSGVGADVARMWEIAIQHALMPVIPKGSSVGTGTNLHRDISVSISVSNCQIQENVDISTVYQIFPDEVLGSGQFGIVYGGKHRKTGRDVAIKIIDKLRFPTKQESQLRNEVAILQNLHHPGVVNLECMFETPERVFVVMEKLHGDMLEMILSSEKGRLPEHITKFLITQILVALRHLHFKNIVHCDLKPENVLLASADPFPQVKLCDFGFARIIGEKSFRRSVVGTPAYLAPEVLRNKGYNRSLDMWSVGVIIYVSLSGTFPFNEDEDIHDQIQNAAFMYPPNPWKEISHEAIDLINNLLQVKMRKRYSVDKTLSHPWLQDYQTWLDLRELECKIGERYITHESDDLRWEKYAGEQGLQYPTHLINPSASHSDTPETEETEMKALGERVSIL
Sequence of WNK2 (human) (Q9Y3S1 whole entry, looked up): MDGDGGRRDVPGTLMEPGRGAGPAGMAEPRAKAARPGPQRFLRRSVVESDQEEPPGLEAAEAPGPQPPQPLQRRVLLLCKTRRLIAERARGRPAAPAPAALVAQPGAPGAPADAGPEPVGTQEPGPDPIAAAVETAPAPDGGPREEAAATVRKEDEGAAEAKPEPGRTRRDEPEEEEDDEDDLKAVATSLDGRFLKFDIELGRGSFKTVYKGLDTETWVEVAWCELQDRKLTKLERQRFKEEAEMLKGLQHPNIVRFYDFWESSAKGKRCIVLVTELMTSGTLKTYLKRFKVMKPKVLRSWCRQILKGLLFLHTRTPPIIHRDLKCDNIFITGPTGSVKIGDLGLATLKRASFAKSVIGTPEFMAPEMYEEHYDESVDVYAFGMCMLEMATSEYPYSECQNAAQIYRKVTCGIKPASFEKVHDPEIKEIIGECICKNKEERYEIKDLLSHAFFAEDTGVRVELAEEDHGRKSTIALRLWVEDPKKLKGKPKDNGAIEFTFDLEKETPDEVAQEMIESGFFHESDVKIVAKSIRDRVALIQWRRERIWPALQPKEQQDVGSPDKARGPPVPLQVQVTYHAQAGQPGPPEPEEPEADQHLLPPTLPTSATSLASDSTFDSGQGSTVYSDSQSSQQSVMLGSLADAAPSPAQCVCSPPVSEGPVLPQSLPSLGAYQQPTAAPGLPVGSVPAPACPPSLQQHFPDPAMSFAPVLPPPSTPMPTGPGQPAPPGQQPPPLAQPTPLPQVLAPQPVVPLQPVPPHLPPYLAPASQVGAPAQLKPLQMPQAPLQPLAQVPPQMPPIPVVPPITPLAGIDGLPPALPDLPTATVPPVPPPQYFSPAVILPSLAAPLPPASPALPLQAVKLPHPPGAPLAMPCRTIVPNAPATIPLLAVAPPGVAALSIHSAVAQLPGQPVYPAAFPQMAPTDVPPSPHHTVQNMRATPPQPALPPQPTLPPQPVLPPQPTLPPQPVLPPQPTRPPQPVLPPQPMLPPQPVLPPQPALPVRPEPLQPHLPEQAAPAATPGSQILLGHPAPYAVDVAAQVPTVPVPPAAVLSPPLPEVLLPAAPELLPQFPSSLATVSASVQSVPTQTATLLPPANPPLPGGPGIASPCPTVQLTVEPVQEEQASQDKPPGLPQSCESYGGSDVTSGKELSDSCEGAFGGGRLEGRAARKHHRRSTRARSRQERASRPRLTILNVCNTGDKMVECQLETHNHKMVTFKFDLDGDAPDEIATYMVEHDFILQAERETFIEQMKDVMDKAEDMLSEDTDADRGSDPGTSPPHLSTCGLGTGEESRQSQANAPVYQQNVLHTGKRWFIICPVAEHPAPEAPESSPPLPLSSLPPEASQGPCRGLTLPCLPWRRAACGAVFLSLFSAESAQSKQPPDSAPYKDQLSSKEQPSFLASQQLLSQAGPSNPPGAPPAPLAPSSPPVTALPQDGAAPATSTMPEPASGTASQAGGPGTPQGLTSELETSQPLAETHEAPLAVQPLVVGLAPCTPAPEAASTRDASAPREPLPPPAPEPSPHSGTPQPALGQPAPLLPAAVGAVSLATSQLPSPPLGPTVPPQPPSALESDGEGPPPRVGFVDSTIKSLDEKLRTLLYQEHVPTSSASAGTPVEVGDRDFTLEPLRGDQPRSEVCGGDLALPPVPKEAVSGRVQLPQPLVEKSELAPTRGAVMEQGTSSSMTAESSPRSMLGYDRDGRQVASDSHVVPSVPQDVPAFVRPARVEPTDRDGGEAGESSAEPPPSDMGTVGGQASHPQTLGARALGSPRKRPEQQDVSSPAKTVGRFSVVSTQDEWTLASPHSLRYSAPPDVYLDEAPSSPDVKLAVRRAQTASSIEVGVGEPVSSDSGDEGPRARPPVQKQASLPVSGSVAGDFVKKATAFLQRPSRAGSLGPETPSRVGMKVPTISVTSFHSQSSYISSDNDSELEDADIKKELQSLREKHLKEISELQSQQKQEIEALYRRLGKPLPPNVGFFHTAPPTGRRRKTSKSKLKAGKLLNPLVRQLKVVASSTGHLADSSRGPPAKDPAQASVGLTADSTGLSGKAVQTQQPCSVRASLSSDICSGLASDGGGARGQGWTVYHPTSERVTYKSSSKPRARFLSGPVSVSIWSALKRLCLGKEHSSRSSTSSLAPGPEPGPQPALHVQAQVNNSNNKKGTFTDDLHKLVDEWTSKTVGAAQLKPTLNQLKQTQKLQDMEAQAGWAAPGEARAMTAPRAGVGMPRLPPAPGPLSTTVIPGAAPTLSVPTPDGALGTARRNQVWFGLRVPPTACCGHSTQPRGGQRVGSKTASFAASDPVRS
Sequence of MKNK2 (human) (Q9HBH9 whole entry, looked up): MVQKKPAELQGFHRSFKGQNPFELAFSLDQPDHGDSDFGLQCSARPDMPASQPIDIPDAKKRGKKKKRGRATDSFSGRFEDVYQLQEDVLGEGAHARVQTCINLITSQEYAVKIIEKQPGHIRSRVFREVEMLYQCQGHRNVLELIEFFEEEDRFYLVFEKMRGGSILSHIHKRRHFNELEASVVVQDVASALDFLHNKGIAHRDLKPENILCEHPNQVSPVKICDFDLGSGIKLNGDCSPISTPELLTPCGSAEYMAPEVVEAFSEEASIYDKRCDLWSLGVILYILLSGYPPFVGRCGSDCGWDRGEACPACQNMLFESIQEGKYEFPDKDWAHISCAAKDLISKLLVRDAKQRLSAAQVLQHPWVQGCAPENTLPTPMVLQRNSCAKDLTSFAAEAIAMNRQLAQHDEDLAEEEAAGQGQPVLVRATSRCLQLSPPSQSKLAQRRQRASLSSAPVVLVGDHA
Sequence of PIM1 (human) (P11309 whole entry, looked up): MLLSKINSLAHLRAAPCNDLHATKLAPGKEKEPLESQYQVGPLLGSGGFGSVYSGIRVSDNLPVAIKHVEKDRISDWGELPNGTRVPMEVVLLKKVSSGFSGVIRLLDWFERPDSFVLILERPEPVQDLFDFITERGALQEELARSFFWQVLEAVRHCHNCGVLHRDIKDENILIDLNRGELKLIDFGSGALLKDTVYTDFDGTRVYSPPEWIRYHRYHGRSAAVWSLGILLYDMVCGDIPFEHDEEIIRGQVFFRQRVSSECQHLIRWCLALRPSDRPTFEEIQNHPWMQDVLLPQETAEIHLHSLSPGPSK

Cc1cc(Nc2nc(-c3ccccc3)nc3ccccc23)n[nH]1
residual activity (ACVR1B (human)): 103%
residual activity (MAP4K4 (human)): 25.7%
residual activity (CHEK1 (human)): 69.1%
residual activity (STK16 (human)): 24.7%
residual activity (FGR (human)): 54.8%
residual activity (MAP3K11 (human)): 18.1%
residual activity (NTRK2 (human)): 4.37%
residual activity (IRAK4 (human)): 93.2%
residual activity (RAF1 (human)): 99.8%
residual activity (MAPK14 (human)): 103%
residual activity (ADRBK2 (human)): 106%
residual activity (PRKD1 (human)): 77.4%
residual activity (NLK (human)): 94.7%
residual activity (BRSK2 (human)): 61.4%
residual activity (ULK2 (human)): 95.1%
residual activity (JAK3 JH1 JH2 (human)): 96.7%
residual activity (CAMK2D (human)): 97.3%
residual activity (CLK4 (human)): 34.3%
residual activity (MKNK2 (human)): 71.8%
residual activity (WNK2 (human)): 82.6%
residual activity (CDK4 CCND1 (human)): 100%
residual activity (DAPK2 (human)): 89.5%
residual activity (MAP3K9 (human)): 14.8%
residual activity (SRPK2 (human)): 68.8%
residual activity (GRK6 (human)): 75.8%
residual activity (PIM1 (human)): 83.3%
residual activity (PRKACA (human)): 97.2%
residual activity (HIPK3 (human)): 88.5%
residual activity (GSK3B (human)): 27.9%
residual activity (SGK2 (human)): 99.7%
residual activity (PASK (human)): 96.4%
residual activity (NUAK1 (human)): 3.88%
residual activity (PIM2 (human)): 92.7%
residual activity (JAK2 JH1 JH2 (human)): 52.6%
residual activity (CSNK1D (human)): 96.7%
residual activity (MARK4 (human)): 83.5%
residual activity (NEK7 (human)): 97.7%
residual activity (TSSK2 (human)): 105%
residual activity (CDK5 CDK5R1 p35 (human)): 77.1%
residual activity (NTRK1 (human)): 14.6%
residual activity (FRK (human)): 72.5%
residual activity (TYRO3 (human)): 94.2%

O=c1c2ccccc2[nH]c(=S)n1CCN1CCC(=C(c2ccc(F)cc2)c2ccc(F)cc2)CC1
residual activity (ACVR1B (human)): 103%
residual activity (MAP4K4 (human)): 99.8%
residual activity (CHEK1 (human)): 108%
residual activity (STK16 (human)): 104%
residual activity (FGR (human)): 95.4%
residual activity (MAP3K11 (human)): 95.2%
residual activity (NTRK2 (human)): 106%
residual activity (IRAK4 (human)): 105%
residual activity (RAF1 (human)): 96.7%
residual activity (MAPK14 (human)): 99%
residual activity (ADRBK2 (human)): 102%
residual activity (PRKD1 (human)): 101%
residual activity (NLK (human)): 99.5%
residual activity (BRSK2 (human)): 99.8%
residual activity (ULK2 (human)): 96.5%
residual activity (JAK3 JH1 JH2 (human)): 104%
residual activity (CAMK2D (human)): 97.9%
residual activity (CLK4 (human)): 103%
residual activity (MKNK2 (human)): 89.5%
residual activity (WNK2 (human)): 96.3%
residual activity (CDK4 CCND1 (human)): 99.6%
residual activity (DAPK2 (human)): 104%
residual activity (MAP3K9 (human)): 111%
residual activity (SRPK2 (human)): 94.1%
residual activity (GRK6 (human)): 111%
residual activity (PIM1 (human)): 105%
residual activity (PRKACA (human)): 101%
residual activity (HIPK3 (human)): 97.7%
residual activity (GSK3B (human)): 112%
residual activity (SGK2 (human)): 99.1%
residual activity (PASK (human)): 99%
residual activity (NUAK1 (human)): 102%
residual activity (PIM2 (human)): 129%
residual activity (JAK2 JH1 JH2 (human)): 92%
residual activity (CSNK1D (human)): 100%
residual activity (MARK4 (human)): 102%
residual activity (NEK7 (human)): 100%
residual activity (TSSK2 (human)): 101%
residual activity (CDK5 CDK5R1 p35 (human)): 101%
residual activity (NTRK1 (human)): 97%
residual activity (FRK (human)): 100%
residual activity (TYRO3 (human)): 91.1%

COc1cc2c(N3CCN(C(=O)Nc4ccc(OC(C)C)cc4)CC3)ncnc2cc1OCCCN1CCCCC1
residual activity (ACVR1B (human)): 101%
residual activity (MAP4K4 (human)): 96.6%
residual activity (CHEK1 (human)): 108%
residual activity (STK16 (human)): 103%
residual activity (FGR (human)): 94%
residual activity (MAP3K11 (human)): 100%
residual activity (NTRK2 (human)): 81.7%
residual activity (IRAK4 (human)): 96%
residual activity (RAF1 (human)): 96.7%
residual activity (MAPK14 (human)): 94.1%
residual activity (ADRBK2 (human)): 97.6%
residual activity (PRKD1 (human)): 96.1%
residual activity (NLK (human)): 105%
residual activity (BRSK2 (human)): 98.6%
residual activity (ULK2 (human)): 100%
residual activity (JAK3 JH1 JH2 (human)): 99.8%
residual activity (CAMK2D (human)): 106%
residual activity (CLK4 (human)): 88.7%
residual activity (MKNK2 (human)): 99%
residual activity (WNK2 (human)): 97.4%
residual activity (CDK4 CCND1 (human)): 92.5%
residual activity (DAPK2 (human)): 104%
residual activity (MAP3K9 (human)): 108%
residual activity (SRPK2 (human)): 103%
residual activity (GRK6 (human)): 105%
residual activity (PIM1 (human)): 97.8%
residual activity (PRKACA (human)): 103%
residual activity (HIPK3 (human)): 101%
residual activity (GSK3B (human)): 98.1%
residual activity (SGK2 (human)): 105%
residual activity (PASK (human)): 105%
residual activity (NUAK1 (human)): 104%
residual activity (PIM2 (human)): 113%
residual activity (JAK2 JH1 JH2 (human)): 101%
residual activity (CSNK1D (human)): 90.9%
residual activity (MARK4 (human)): 98.7%
residual activity (NEK7 (human)): 93.4%
residual activity (TSSK2 (human)): 96.6%
residual activity (CDK5 CDK5R1 p35 (human)): 99.4%
residual activity (NTRK1 (human)): 48.1%
residual activity (FRK (human)): 101%
residual activity (TYRO3 (human)): 101%

COc1cc2c(Nc3ccc(Br)cc3F)ncnc2cc1OCC1CCN(C)CC1
residual activity (ACVR1B (human)): 107%
residual activity (MAP4K4 (human)): 79.8%
residual activity (CHEK1 (human)): 94.4%
residual activity (STK16 (human)): 101%
residual activity (FGR (human)): 30%
residual activity (MAP3K11 (human)): 100%
residual activity (NTRK2 (human)): 93.2%
residual activity (IRAK4 (human)): 35.3%
residual activity (RAF1 (human)): 81.1%
residual activity (MAPK14 (human)): 91.8%
residual activity (ADRBK2 (human)): 97.4%
residual activity (PRKD1 (human)): 99.3%
residual activity (NLK (human)): 96.2%
residual activity (BRSK2 (human)): 103%
residual activity (ULK2 (human)): 108%
residual activity (JAK3 JH1 JH2 (human)): 96%
residual activity (CAMK2D (human)): 95.8%
residual activity (CLK4 (human)): 84.3%
residual activity (MKNK2 (human)): 86.9%
residual activity (WNK2 (human)): 100%
residual activity (CDK4 CCND1 (human)): 94.8%
residual activity (DAPK2 (human)): 93.3%
residual activity (MAP3K9 (human)): 96.1%
residual activity (SRPK2 (human)): 106%
residual activity (GRK6 (human)): 104%
residual activity (PIM1 (human)): 95%
residual activity (PRKACA (human)): 92.8%
residual activity (HIPK3 (human)): 99.5%
residual activity (GSK3B (human)): 101%
residual activity (SGK2 (human)): 122%
residual activity (PASK (human)): 102%
residual activity (NUAK1 (human)): 92.7%
residual activity (PIM2 (human)): 99.4%
residual activity (JAK2 JH1 JH2 (human)): 102%
residual activity (CSNK1D (human)): 94.4%
residual activity (MARK4 (human)): 99.4%
residual activity (NEK7 (human)): 99%
residual activity (TSSK2 (human)): 95.9%
residual activity (CDK5 CDK5R1 p35 (human)): 107%
residual activity (NTRK1 (human)): 104%
residual activity (FRK (human)): 79.5%
residual activity (TYRO3 (human)): 33%

Reference: the kinase profiling compilation of Christmann-Franck et al. (2016)
